# In PubChem BioAssay (NCI):
#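 Each compound was tested at five concentrations against cells in 96-well plates for 48 hours. TGI marks complete inhibition of growth.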
# Columns and labels:
# Test in all cases: DTP human tumour cell line panel, 48 h
# 786-0 renal = test system: 786-0 renal
# A498 renal = test system: A498 renal
# A549 NSCLC = test system: A549 NSCLC
# ACHN renal = test system: ACHN renal
# BT-549 breast = test system: BT-549 breast
# CAKI-1 renal = test system: CAKI-1 renal
# CCRF-CEM leukemia = test system: CCRF-CEM leukemia
# COLO 205 colon = test system: COLO 205 colon
# DU-145 prostate = test system: DU-145 prostate
# EKVX NSCLC = test system: EKVX NSCLC
# HCC-2998 colon = test system: HCC-2998 colon
# HCT-116 colon = test system: HCT-116 colon
# HCT-15 colon = test system: HCT-15 colon
# HL-60(TB) leukemia = test system: HL-60(TB) leukemia
# HOP-62 NSCLC = test system: HOP-62 NSCLC
# HOP-92 NSCLC = test system: HOP-92 NSCLC
# HS 578T breast = test system: HS 578T breast
# HT29 colon = test system: HT29 colon
# IGROV1 ovarian = test system: IGROV1 ovarian
# K-562 leukemia = test system: K-562 leukemia
# KM12 colon = test system: KM12 colon
# LOX IMVI melanoma = test system: LOX IMVI melanoma
# M14 melanoma = test system: M14 melanoma
# MALME-3M melanoma = test system: MALME-3M melanoma
# MCF7 breast = test system: MCF7 breast
# MDA-MB-231 breast = test system: MDA-MB-231 breast
# MDA-MB-435 = test system: MDA-MB-435
# MOLT-4 leukemia = test system: MOLT-4 leukemia
# NCI-H226 lung = test system: NCI-H226 lung
# NCI-H23 lung = test system: NCI-H23 lung
# NCI-H460 lung = test system: NCI-H460 lung
# NCI/ADR-RES ovarian = test system: NCI/ADR-RES ovarian
# OVCAR-3 ovarian = test system: OVCAR-3 ovarian
# OVCAR-4 ovarian = test system: OVCAR-4 ovarian
# OVCAR-5 ovarian = test system: OVCAR-5 ovarian
# OVCAR-8 ovarian = test system: OVCAR-8 ovarian
# PC-3 prostate = test system: PC-3 prostate
# RPMI-8226 leukemia = test system: RPMI-8226 leukemia
# RXF 393 renal = test system: RXF 393 renal
# SF-268 CNS = test system: SF-268 CNS
# SF-295 CNS = test system: SF-295 CNS
# SF-539 CNS = test system: SF-539 CNS
# SK-MEL-2 melanoma = test system: SK-MEL-2 melanoma
# SK-MEL-28 melanoma = test system: SK-MEL-28 melanoma
# SK-MEL-5 melanoma = test system: SK-MEL-5 melanoma
# SK-OV-3 ovarian = test system: SK-OV-3 ovarian
# SNB-19 CNS = test system: SNB-19 CNS
# SNB-75 CNS = test system: SNB-75 CNS
# SW-620 colon = test system: SW-620 colon
# T-47D breast = test system: T-47D breast
# TK-10 renal = test system: TK-10 renal
# U251 CNS = test system: U251 CNS
# UACC-257 melanoma = test system: UACC-257 melanoma
# UACC-62 melanoma = test system: UACC-62 melanoma
# UO-31 renal = test system: UO-31 renal
smiles,measurement,setting,value
O=S(=O)(c1ccccc1)n1c(C(O)c2ccccc2)cc2ccccc21 (stereo not given),TGI,786-0 renal,29.6 µM
same,TGI,A498 renal,26.5 µM
same,TGI,A549 NSCLC,35.3 µM
same,TGI,ACHN renal,29.1 µM
same,TGI,BT-549 breast,32.2 µM
same,TGI,CAKI-1 renal,47.3 µM
same,TGI,CCRF-CEM leukemia,28.9 µM
same,TGI,COLO 205 colon,45.5 µM
same,TGI,DU-145 prostate,> 100 µM
same,TGI,EKVX NSCLC,41.6 µM
same,TGI,HCC-2998 colon,33.2 µM
same,TGI,HCT-116 colon,34.6 µM
same,TGI,HCT-15 colon,61.3 µM
same,TGI,HL-60(TB) leukemia,34.9 µM
same,TGI,HOP-62 NSCLC,31.8 µM
same,TGI,HOP-92 NSCLC,38.4 µM
same,TGI,HS 578T breast,27.9 µM
same,TGI,HT29 colon,26.2 µM
same,TGI,IGROV1 ovarian,35.4 µM
same,TGI,K-562 leukemia,> 100 µM
same,TGI,KM12 colon,30.3 µM
same,TGI,LOX IMVI melanoma,> 100 µM
same,TGI,M14 melanoma,28.1 µM
same,TGI,MALME-3M melanoma,39.2 µM
same,TGI,MCF7 breast,40.9 µM
same,TGI,MDA-MB-231 breast,49.2 µM
same,TGI,MDA-MB-435,36.4 µM
same,TGI,MOLT-4 leukemia,> 100 µM
same,TGI,NCI-H226 lung,29.3 µM
same,TGI,NCI-H23 lung,41.9 µM
same,TGI,NCI-H460 lung,> 100 µM
same,TGI,NCI/ADR-RES ovarian,30.3 µM
same,TGI,OVCAR-3 ovarian,30.3 µM
same,TGI,OVCAR-4 ovarian,50.2 µM
same,TGI,OVCAR-5 ovarian,30.9 µM
same,TGI,OVCAR-8 ovarian,49.9 µM
same,TGI,PC-3 prostate,30.2 µM
same,TGI,RPMI-8226 leukemia,> 100 µM
same,TGI,RXF 393 renal,30.5 µM
same,TGI,SF-268 CNS,38.5 µM
same,TGI,SF-295 CNS,32.2 µM
same,TGI,SF-539 CNS,30.8 µM
same,TGI,SK-MEL-2 melanoma,31.3 µM
same,TGI,SK-MEL-28 melanoma,39.9 µM
same,TGI,SK-MEL-5 melanoma,32.4 µM
same,TGI,SK-OV-3 ovarian,29 µM
same,TGI,SNB-19 CNS,26.7 µM
same,TGI,SNB-75 CNS,35.7 µM
same,TGI,SW-620 colon,64.7 µM
same,TGI,T-47D breast,65.8 µM
same,TGI,TK-10 renal,33.6 µM
same,TGI,U251 CNS,43.7 µM
same,TGI,UACC-257 melanoma,34.4 µM
same,TGI,UACC-62 melanoma,28 µM
same,TGI,UO-31 renal,24 µM
